The values below are quoted from earlier work in US20100009005A1, “Novel acetysalicylic acid formulations” (Flamel Technologies ,S.A., priority 2005, published 2010).

With `CS(=O)(=O)c1ccc(C2=C(c3ccccc3)C(=O)OC2)cc1` [rofecoxib], the “time of peak plasma concentrations” value (after oral administration) was 2 to 3 h. The half life entry (in vivo) is “about 17 hours”.
